From publication PMC4906895, “Clonorchis sinensis omega-class glutathione transferases play major roles in the protection of the reproductive system during maturation and the response to oxidative stress” (Parasites & Vectors, 2016)
Like-named read-outs stand apart in the source and are kept apart here.

Columns and labels:
[1] = molecular target: T1, Clonorchis sinensis omega-class glutathione transferase 2 (CsGSTo2) (Clonorchis sinensis, UniProt G7YE46); assay: spectrophotometric GST activity of purified enzyme (specific activity); format: biochemical
T1 construct: gene CLF_105746; full-length recombinant (223 amino acids), His-tag removed; GenBank KX163089
T1 sequence (G7YE46 1-223): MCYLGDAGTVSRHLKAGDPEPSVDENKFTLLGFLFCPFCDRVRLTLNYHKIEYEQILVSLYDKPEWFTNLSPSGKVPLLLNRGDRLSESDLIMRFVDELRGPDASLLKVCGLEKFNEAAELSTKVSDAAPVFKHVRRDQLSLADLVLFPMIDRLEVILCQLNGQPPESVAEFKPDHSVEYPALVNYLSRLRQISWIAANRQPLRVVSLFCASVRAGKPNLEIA

[2] = molecular target: T2, Clonorchis sinensis omega-class glutathione transferase 1 (CsGSTo1) (Clonorchis sinensis, UniProt A0A192IBN1); assay: as above; format: biochemical
T2 construct: full-length recombinant (246 amino acids), His-tag removed; GenBank KX163088
T2 sequence (A0A192IBN1 1-246): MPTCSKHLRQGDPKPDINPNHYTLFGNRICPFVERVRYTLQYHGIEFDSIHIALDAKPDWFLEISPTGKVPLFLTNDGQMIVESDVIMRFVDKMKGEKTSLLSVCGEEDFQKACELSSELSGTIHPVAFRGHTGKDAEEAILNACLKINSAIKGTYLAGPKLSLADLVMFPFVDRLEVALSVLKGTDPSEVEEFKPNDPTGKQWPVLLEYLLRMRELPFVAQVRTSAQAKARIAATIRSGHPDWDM

[3] = molecular target: T2, Clonorchis sinensis omega-class glutathione transferase 1 (CsGSTo1); assay: biochemical; set-up: DHAR activity inhibition of recombinant CsGSTo, absorbance at 265 nm; Ki from Lineweaver-Burk plots
Description: (§1) We determined the inhibition mode of CsGSTos employing SHG and the anthelminthic drug praziquantel (PZQ; Shinpoong, Seoul, Korea). rCsGSTos (each 100 ng) were preincubated with Dulbecco’s PBS supplemented with 10–1,000 μM PZQ or 10–500 nM SHG for 2 min, after which the reaction was initiated by adding 1 mM GSH and 1 mM DHA. The increase in absorbance of the resulting […] was recorded spectrophotometrically at 265 nm. A set of reactions under identical conditions was done for each inhibitor concentration and for controls. To examine the inhibition mode of the specific active sites, rCsGSTos were preincubated with saturating concentrations of GSH (5 mM) for 2 min before conjugating reaction with varying concentrations of DHA (0.01–5 mM). […] All measurements were independently done in triplicate. Data were analyzed by Lineweaver-Burk plots. GST activity was spectrophotometrically determined employing a panel of substrates (Sigma-Aldrich); 1-chloro-2,4-dinitrobenzene (CDNB; pH 6.5, 340 nm), 1,2-dichloro-4-nitrobenzene (DCNB; pH 7.5, 345 nm), [compound left out] (4-NBC; pH 6.5, 310 nm), [compound left out] acetate (4-NPA; pH 7.0, 400 nm), 4-hydroxy nonenal (pH 7.5, 340 nm), cumene hydroperoxide (CHP; pH 6.5, 340 nm) and ethacrynic acid (pH 7.5, 340 nm). The reactions were recorded for 5 min at 25 °C in 100 mM potassium phosphate buffer (pH 7.2, 200 μl) containing each 4 mM substrate and 4 mM GSH. The formation of ascorbate by the glutathione-dependent DHAR was detected in potassium phosphate buffer (50 mM, pH 7.2) supplemented with 1 mM GSH and 0.25 mM dehydroascorbate (DHA) at 265 nm. Thioltransferase activity was assayed using hydroxylethyl disulfide (HEDS, 2 mM) in potassium phosphate buffer (50 mM, pH 7.2) containing 0.2 mM NADPH, 0.5 mM GSH and 0.5 units of glutathione reductase for 2 min at 340 nm. One unit of enzyme activity was defined as the amount of enzyme that catalyzed the formation of one micromole of product per min in the presence of respective substrates. Vmax and appKm were determined by one site saturation assays in ranges of 0.01–5 mM DHA with 5 mM GSH (saturating concentration). We also used variable concentrations of GSH ranging from 0.01–5.0 mM with 5 mM DHA (saturating concentration). Enzyme activity was monitored by changes of absorbance and was converted to specific activity using a molar extinction coefficient (Δε = 5.3). Non-enzymatic reaction was concomitantly monitored and subtracted from the entire reaction rate. All enzyme assays were independently performed in triplicate at 25 °C. Data were analyzed by best fit algorithm in SigmaPlot10.0.1 (Systat, San Diego, CA, USA). […] SHG might act via nucleophilic attack of the active site cysteine on the cysteinyl sulfur of the SHG to form a mixed disulfide with the DHA/GSH moiety with high affinity. […] PZQ might bind to a site other than the active- and glutathione-binding sites and act allosterically. We determined IC50 values of rCsGSTos against SHG and PZQ at a saturating concentration (IC50SC).

[4] = molecular target: T1, Clonorchis sinensis omega-class glutathione transferase 2 (CsGSTo2); assay: biochemical; set-up: DHAR activity inhibition of recombinant CsGSTo, absorbance at 265 nm; Ki from Lineweaver-Burk plots; details: for Ki: non-competitive
Description: as §1

[5] = substrate: O=C1O[C@H]([C@@H](O)CO)C(=O)C1=O; assay: steady-state DHAR kinetics of purified enzyme (apparent Km); format: biochemical, Clonorchis sinensis; details: GSH

## O=[N+]([O-])c1ccc(CCl)cc1 [4-NBC, 4-nitrobenzyl chloride]
[1]
  Specific activity (μmol/min/mg) / rGSTo2: 0.91 ± 0.24 µmol/min/mg
[2]
  Specific activity (μmol/min/mg) / rGSTo1: 1.42 ± 0.09 µmol/min/mg

## O=C(C1CCCCC1)N1CC(=O)N2CCc3ccccc3C2C1 (centres unmarked) [PZQ, praziquantel]
[3]
  IC50: 108.4 ± 0.8 µM
[3]; ligand binding site (varied GSH), non-competitive
  Ki: 46.8 µM
[3]; specific active site (varied DHA), non-competitive
  Ki: 44.1 µM
[4]
  IC50: 116.8 ± 0.7 µM
[4]; ligand binding site (varied GSH)
  Ki: 42.8 µM
[4]; specific active site (varied DHA)
  Ki: 38.2 µM

## CCCCCCSC[C@H](NC(=O)CC[C@H](N)C(=O)O)C(=O)NCC(=O)O [SHG, S-hexylglutathione]
[3]
  Ki: 0.00063 µM

B1: Clonorchis sinensis omega-class glutathione transferase 1 (CsGSTo1) (Clonorchis sinensis) (protein)
chain: T2 sequence (A0A192IBN1 1-246)
notes: full-length recombinant (246 amino acids), His-tag removed; GenBank KX163088
[5]
  Km: 210 ± 20 µM
  Vmax: 1.16 ± 0.02 µmol/min/mg
  kcat: 0.48 s⁻¹
  kcat/Km: 2290 M⁻¹ s⁻¹

B2: Clonorchis sinensis omega-class glutathione transferase 2 (CsGSTo2) (Clonorchis sinensis) (protein)
chain: T1 sequence (G7YE46 1-223)
notes: full-length recombinant (223 amino acids), His-tag removed; GenBank KX163089
[5]
  Km: 170 ± 20 µM
  Vmax: 1.08 ± 0.02 µmol/min/mg
  kcat: 0.43 s⁻¹
  kcat/Km: 2530 M⁻¹ s⁻¹
